Source: patent US8609674B2, “Potassium channel modulators” (AbbVie Inc., priority 2010, dated 2013)

Assays:
[1] = target: T1, human KCNQ2 and KCNQ3 subunits (KCNQ2/3 channels) (Homo sapiens, UniProt O43525+O43526); test: KCNQ2/3 thallium influx FLIPR assay (BTC-AM dye); assay type: cell-based; conditions: for EC50: HEK293 cells stably expressing human KCNQ2 and KCNQ3, Tl+ influx; for Emax: maximum response relative to 10 μM retigabine (=100%), read-out: KCNQ2/3 Max. %
T1 construct: expressed in transfected cells; host or cells: HEK293
Protocol: The following example describes the assay that may be used to identify compounds that activate KCNQ2/3 channels.
HEK293 cells stably expressing human KCNQ2 and KCNQ3 subunits were seeded in 96-well, black-walled, clear-bottomed, poly-D-lysine coated plates (BD Biosciences, Bedford, Mass.) at a density of 1×10^5 cells per well 24 hours before the assay. On the assay day, BTC-AM dye (Invitrogen, Carlsbad, Calif.) was loaded into the cells by replacing the cell culture medium with 55 μL/well of 3 μg/ml dye in Dulbecco's Phosphate Buffered Saline (DPBS) (Invitrogen). Dye loading was allowed to proceed for 2 hours at room temperature and then cells were washed twice with 50 μL/well of assay buffer (in mM: 10 HEPES pH 7.3, 5 glucose, 140 Na-gluconate, 2.5 K-gluconate, 3.6 Ca-gluconate, 2 MgSO4, 0.1 Ouabain) to remove unloaded dye. Cells were incubated in 50 μL of assay buffer before loading onto a FLIPR system (Molecular Devices, Sunnyvale, Calif.). Various concentrations of compounds to be assayed were added to the cells in 50 μL of assay buffer and incubated for 4 minutes. The fluorescence signal was initiated by adding 100 μL of assay buffer containing 6 mM TlNO3 and 10 mM K2SO4. Fluors were excited using the 488-nm line of an argon laser and emission was filtered using a 540±30 nm bandpass filter. Fluorescent signals were recorded for 3 minutes. Sums of the responses over basal responses were plotted versus concentrations of test compounds to obtain an EC50 value and the points fit with a nonlinear regression curve using GraphPad Prism software (GraphPad Software Inc., San Diego, Calif.). EC50 values were calculated from the resulting sigmoidal dose-response curves. The maximum response for each test compound was determined relative to the response produced by 10 μM retigabine. The maximum response of retigabine at 10 μM was set at 100%.

[2] = system: spinal nerve ligation-induced neuropathic pain; test: Spinal nerve ligation (SNL) model of neuropathic pain; assay type: in vivo, Sprague-Dawley rats; conditions: rat SNL model, about 30 mg/kg i.p., 30 minutes or more before testing
Source text: (§1) Adult male Sprague-Dawley rats (250-300 g body weight, Charles River Laboratories, Portage, Mich.) were used. Animal handling and experimental protocols were approved by the Institutional Animal Care and Use Committee (IACUC) at Abbott Laboratories. For all surgical procedures, animals were maintained under isoflurane anesthesia (4-5% to induce, 1-3% to maintain), and the incision sites were sterilized using a 10% povidone-iodine solution prior to and after surgeries.
(§2) Tactile (mechanical) allodynia was measured using calibrated von Frey filaments (Stoelting, Wood Dale, Ill.) as described in Chaplan, S. R., F. W. Bach, J. M. Pogrel, J. M. Chung and T. L. Yaksh, 1994, Quantitative assessment of tactile allodynia in the rat paw, J. Neurosci. Methods, 53, 55. […] A 50% withdrawal threshold was determined using an up-down procedure (Dixon, W. J., 1980, Efficient analysis of experimental observations, Ann. Rev. Pharmacol. Toxicol., 20, 441). […] Tactile allodynia thresholds were also assessed in several control groups, including naive, sham-operated, and saline infused animals as well as in the contralateral paws of nerve-injured rats. To evaluate the anti-nociceptive effects, animals were administered vehicle or test compound and tactile allodynia was assessed 30 minutes after i.p. administration. […]

human KCNQ5 = target: T2, human KCNQ5 (Homo sapiens, UniProt Q9NR82); test: KCNQ5 thallium influx FLIPR TETRA assay; assay type: cell-based; conditions: for EC50: HEK293 cells stably expressing human KCNQ5, Tl+ influx; for Emax: maximum response relative to 10 μM retigabine (=100%), read-out: KCNQ5 Max. %
T2 construct: expressed in transfected cells; host or cells: HEK293
Protocol: (§3) The following example describes the assay that may be used to identify compounds that activate KCNQ4 or KCNQ5 channels.
(§4) The assays were performed using a FLIPR^TETRA (Molecular Devices, Sunnyvale, Calif.) in 384-well format. HEK293 cells stably expressing human KCNQ4 or KCNQ5 were seeded in 384-well, black-walled, clear-bottomed, poly-D-lysine coated plates (Greiner Bio-One, Germany) at a density of 1.5×10^4 cells per well, 24 hours before the assay. On the assay day, BTC-AM dye was loaded into the cells by replacing the cell culture medium with 30 μL/well of 2.8 μM dye in DPBS. Dye loading was allowed to proceed for 2 hours at room temperature and then cells were washed once in 30 μL/well of assay buffer (in mM: 10 HEPES pH 7.3, 5 glucose, 140 Na-gluconate, 2.5 K-gluconate, 3.6 Ca-gluconate, 2 MgSO4, 0.1 Ouabain) to remove unloaded dye. Cells were incubated in 30 μL of assay buffer before loading onto a FLIPR^TETRA system. Compounds to be assayed were added to the cells as 4× of final concentration in 15 μL of assay buffer and incubated for 4 minutes at room temperature. The influx signal was initiated by adding 15 μL of assay buffer containing 4.2 mM TlNO3 and 7 mM K2SO4. Tl^+ influx signals were recorded for 3 minutes. Tl^+ influx signal was quantified as light unit changes after Tl^+ addition using the “SUM” statistic from the FLIPR^TETRA software. Sums of the responses over basal responses were plotted versus concentrations of test compounds to obtain an EC50 value and the points fit with a nonlinear regression curve using GraphPad Prism software (GraphPad Software Inc., San Diego, Calif.). EC50 values were calculated from the resulting sigmoidal dose-response curves. The maximum response for each test compound was determined relative to the response produced by 10 μM retigabine. The maximum response of retigabine at 10 μM was set at 100%.

[3] = system: capsaicin-induced secondary mechanical hyperalgesia; test: Capsaicin-induced secondary mechanical hypersensitivity; assay type: in vivo, Sprague-Dawley rats; conditions: rat, about 30 mg/kg i.p., 30 min before testing, 180 min after capsaicin
Source text: as §1
Rats were allowed to acclimate to the study room for 1 hour. They were then briefly restrained, and capsaicin was administered at 10 μg in 10 μl of vehicle (10% ethanol and 2-hydroxypropyl cyclodextrin) by intraplantar injection into the center of the right hind paw. Secondary mechanical hyperalgesia was measured at the heel away from the site of injection at 180 min following capsaicin (Joshi et al 2006, Neuroscience 143, 587-596). Compounds were injected (i.p.) 30 min before testing (150 min post-capsaicin).
Tactile (mechanical) allodynia was measured using calibrated von Frey filaments (Stoelting, Wood Dale, Ill.) as described in Chaplan, S. R., F. W. Bach, J. M. Pogrel, J. M. Chung and T. L. Yaksh, 1994, Quantitative assessment of tactile allodynia in the rat paw, J. Neurosci. Methods, 53, 55. Rats were placed into inverted individual plastic containers (20×12.5×20 cm) on top of a suspended wire mesh grid, and acclimated to the test chambers for 20 minutes. […] A 50% withdrawal threshold was determined using an up-down procedure (Dixon, W. J., 1980, Efficient analysis of experimental observations, Ann. Rev. Pharmacol. Toxicol., 20, 441). […] Tactile allodynia thresholds were also assessed in several control groups, including naive, sham-operated, and saline infused animals as well as in the contralateral paws of nerve-injured rats. To evaluate the anti-nociceptive effects, animals were administered vehicle or test compound and tactile allodynia was assessed 30 minutes after i.p. administration.
Tactile allodynia was measured as described above.

human KCNQ4 = target: T3, human KCNQ4 (Homo sapiens, UniProt P56696); test: KCNQ4 thallium influx FLIPR TETRA assay; assay type: cell-based; conditions: for EC50: HEK293 cells stably expressing human KCNQ4, Tl+ influx; for Emax: maximum response relative to 10 μM retigabine (=100%), read-out: KCNQ4 Max. %
T3 construct: expressed in transfected cells; host or cells: HEK293
Protocol: as §3, §4

[4] = system: chronic constriction injury-induced neuropathic pain; test: Chronic constriction injury (CCI) model of neuropathic pain (Bennett model); assay type: in vivo, Sprague-Dawley rats; conditions: rat CCI model, about 30 mg/kg i.p., 30 minutes or more before testing
Source text: as §1, §2

| SMILES | EC50 [1] [µM] | Emax [1] [%] | change in paw withdrawal latency versus vehicle (tactile allodynia) [2] | EC50 (human KCNQ5) [µM] | Emax (human KCNQ5) [%] | change in paw withdrawal latency versus vehicle (tactile allodynia) [3] | EC50 (human KCNQ4) [µM] | Emax (human KCNQ4) [%] | change in paw withdrawal latency versus vehicle (mechanical allodynia) [4] |
| --- | --- | --- | --- | --- | --- | --- | --- | --- | --- |
| CC(C)c1nc2ccccc2c(=O)n1NC(=O)C[C@@H]1CC[C@H]2C[C@@H]1C2(C)C [Example 1, 2-[(1S,2S,5S)-6,6-dimethylbicyclo[3.1.1]hept-2-yl]-N-[4-oxo-2-(propan-2-yl)quinazolin-3(4H)-yl]acetamide] | < 0.1 | 103 | statistically significant change in paw withdrawal latency versus vehicle | > 30 | 164 | statistically significant change in paw withdrawal latency versus vehicle | > 30 | 22 | statistically significant change in paw withdrawal latency versus vehicle |
| CC1(C)[C@H]2CC[C@@H](CC(=O)Nn3c(C4CC4)nc4ccccc4c3=O)[C@@H]1C2 [Example 5, N-(2-cyclopropyl-4-oxoquinazolin-3(4H)-yl)-2-[(1S,2S,5S)-6,6-dimethylbicyclo[3.1.1]hept-2-yl]acetamide] | < 0.1 | 93 | – | > 30 | 50 | statistically significant change in paw withdrawal latency versus vehicle | > 30 | 6 | – |
| CCc1nc2ccccc2c(=O)n1NC(=O)C[C@@H]1CC[C@H]2C[C@@H]1C2(C)C [Example 2, 2-[(1S,2S,5S)-6,6-dimethylbicyclo[3.1.1]hept-2-yl]-N-(2-ethyl-4-oxoquinazolin-3(4H)-yl)acetamide] | 0.1 to 0.5 | 109 | – | > 30 | 294 | statistically significant change in paw withdrawal latency versus vehicle | > 30 | 22 | – |
| CC(C)c1nc2ccccc2c(=O)n1NC(=O)C[C@H]1CC[C@H]2C[C@@H]1C2(C)C [Example 21, 2-[(1S,2R,5S)-6,6-dimethylbicyclo[3.1.1]hept-2-yl]-N-[4-oxo-2-(propan-2-yl)quinazolin-3(4H)-yl]acetamide] | 0.5 to 1 | 121 | – | > 30 | 14 | – | 0.5 to 1 | 25 | – |
| CC1(C)[C@H]2CC[C@@H](CC(=O)Nn3c(C4CC4)nc4sccc4c3=O)[C@@H]1C2 [Example 15, N-(2-cyclopropyl-4-oxothieno[2,3-d]pyrimidin-3(4H)-yl)-2-[(1S,2S,5S)-6,6-dimethylbicyclo[3.1.1]hept-2-yl]acetamide] | 0.1 to 0.5 | 149 | statistically significant change in paw withdrawal latency versus vehicle | > 30 | 210 | – | > 30 | 21 | – |
| CCc1nc2sccc2c(=O)n1NC(=O)C[C@@H]1CC[C@H]2C[C@@H]1C2(C)C [Example 6, 2-[(1S,2S,5S)-6,6-dimethylbicyclo[3.1.1]hept-2-yl]-N-(2-ethyl-4-oxothieno[2,3-d]pyrimidin-3(4H)-yl)acetamide] | 1 to 10 | 99 | – | > 30 | 9 | – | > 30 | 5 | – |
| CC1(C)[C@H]2CC[C@@H](CC(=O)Nn3cnc4ccccc4c3=O)[C@@H]1C2 [Example 16, 2-[(1S,2S,5S)-6,6-dimethylbicyclo[3.1.1]hept-2-yl]-N-(4-oxoquinazolin-3(4H)-yl)acetamide] | 1 to 10 | 144 | – | > 30 | 13 | – | > 30 | 6 | – |
| CC(C)c1nc2ccccc2c(=O)n1NC(=O)COCC[C@@H]1CC[C@H]2C[C@@H]1C2(C)C [Example 10, 2-{2-[(1S,2S,5S)-6,6-dimethylbicyclo[3.1.1]hept-2-yl]ethoxy}-N-[4-oxo-2-(propan-2-yl)quinazolin-3(4H)-yl]acetamide] | 1 to 10 | 121 | – | > 30 | 335 | – | > 30 | 122 | – |
| CC(C)c1nc2ccccc2c(=O)n1NC(=O)CC1CC2CC1C2 (racemic) [Example 22, (±)-2-(bicyclo[2.1.1]hex-2-yl)-N-[4-oxo-2-(propan-2-yl)quinazolin-3(4H)-yl]acetamide] | < 0.1 | 179 | – | 1 to 10 | 857 | – | 1 to 10 | 255 | – |
